What was measured:
[1] = Tmax in 8 hrs fasted healthy human plasma at 200 mg, po administered as single dose of two-100 mg capsules; format: ADME, organism-based
[2] = AUC (0 to last) in 8 hrs fasted healthy human plasma at 200 mg, po administered as single dose of suspension; format: ADME, organism-based; parameters: dose 200 mg, route oral, time 0 - last
[3] = AUC (0 to last) in high-fat fed healthy human plasma at 200 mg, po administered as single dose of two-100 mg capsules; format: ADME, organism-based; parameters: dose 200 mg, time 0 - last, route oral
[4] = AUC (0 to infinity) in 8 hrs fasted healthy human plasma at 200 mg, po administered as single dose of suspension; format: ADME, organism-based; parameters: dose 200 mg, route oral, time infinity
[5] = AUC (0 to infinity) in 8 hrs fasted healthy human plasma at 200 mg, po administered as single dose of two-100 mg capsules; format: ADME, organism-based; parameters: dose 200 mg, route oral, time infinity
[6] = AUC (0 to infinity) in high-fat fed healthy human plasma at 200 mg, po administered as single dose of two-100 mg capsules; format: ADME, organism-based; parameters: dose 200 mg, route oral, time infinity
[7] = Half life in 8 hrs fasted healthy human plasma at 200 mg, po administered as single dose of two-100 mg capsules; format: ADME, organism-based
[8] = tested on: Homo sapiens; experiment: Ratio of Cmax in 8 hrs fasted healthy human plasma at 200 mg, po administered as single dose of suspension to cmax in 8 hrs fasted healthy human plasma assessed as EDP-420 9-keto level at 200 mg, po administered as single dose of suspension; format: ADME, organism-based; conditions: in vivo
[9] = AUC (0 to 24 hrs) in Epithelial lining fluid of healthy human at 400 mg, po administered as single dose; format: ADME, organism-based; conditions: read-out: Drug uptake
[10] = Ratio of AUC (0 to 24 hrs) in Alveolar macrophage of healthy human to AUC (0 to 24 hrs) in healthy human plasma at 400 mg, po administered as single dose; format: ADME, organism-based; conditions: alveolar macrophages / plasma
[11] = Drug concentration in Alveolar macrophage of healthy human at 400 mg, po administered as single dose after 24 hrs; format: ADME, organism-based; conditions: alveolar macrophages, read-out: Drug uptake
[12] = tested on: Homo sapiens; experiment: Ratio of AUC (0 to 24 hrs) in healthy human plasma at 200 mg, po once daily for 3 days measured after 3 days to AUC (0 to 24 hrs) in healthy human plasma at 200 mg, po once daily for 3 days measured after 1 day; format: ADME, organism-based; conditions: in vivo
[13] = tested on: Homo sapiens; experiment: Toxicity in healthy human assessed as occurrence of mortality at 200 mg, po once daily for 3 days; format: organism-based; conditions: in vivo, 72 h
[14] = tested on: Homo sapiens; experiment: Toxicity in healthy human assessed as severe adverse events at 400 mg administered once on day 1 followed by 200 mg once daily for 2 days during 3 days of treatment; format: organism-based; conditions: in vivo
[15] = tested on: Homo sapiens; experiment: Toxicity in healthy human in 8 hrs fasted healthy human assessed as incidence of severe adverse events at 200 mg, po administered as single dose of two-100 mg capsules; format: organism-based; conditions: in vivo
[16] = tested on: Homo sapiens; experiment: Toxicity in healthy human in 8 hrs fasted healthy human assessed as changes in vital signs at 200 mg, po administered as single dose of suspension; format: organism-based; conditions: in vivo
[17] = tested on: Homo sapiens; experiment: Toxicity in healthy human in 8 hrs fasted healthy human assessed as changes in vital signs at 200 mg, po administered as single dose of two-100 mg capsules; format: organism-based; conditions: in vivo
[18] = tested on: Homo sapiens; experiment: Toxicity in high-fat fed healthy human assessed as changes in vital signs at 200 mg, po administered as single dose of two-100 mg capsules; format: organism-based; conditions: in vivo
[19] = tested on: Homo sapiens; experiment: Toxicity in healthy human in 8 hrs fasted healthy human assessed as changes in ECG at 200 mg, po administered as single dose of two-100 mg capsules; format: organism-based; conditions: in vivo
[20] = tested on: Homo sapiens; experiment: Toxicity in healthy human in 8 hrs fasted healthy human assessed as changes in physical examinations at 200 mg, po administered as single dose of two-100 mg capsules; format: organism-based; conditions: in vivo
[21] = tested on: Homo sapiens; experiment: Toxicity in high-fat fed healthy human assessed as changes in physical examinations at 200 mg, po administered as single dose of two-100 mg capsules; format: organism-based; conditions: in vivo
[22] = Cmax in healthy human plasma at 200 mg, po once daily for 3 days measured after 1 day; format: ADME, organism-based; parameters: dose 200 mg, route oral
[23] = Cmax in healthy human plasma at 200 mg, po once daily for 3 days measured after 3 days; format: ADME, organism-based; parameters: dose 200 mg, route oral
[24] = Tmax in healthy human plasma at 200 mg, po once daily for 3 days measured after 1 day; format: ADME, organism-based
[25] = Tmax in healthy human plasma at 200 mg, po once daily for 3 days measured after 3 days; format: ADME, organism-based
[26] = AUC (0 to infinity) in healthy human plasma at 200 mg, po once daily for 3 days measured after 3 days; format: ADME, organism-based; parameters: dose 200 mg, route oral, time infinity
[27] = Half life in healthy human plasma at 200 mg, po once daily for 3 days measured after 3 days; format: ADME, organism-based
[28] = Cmax in healthy human plasma at loading dose of 400 mg/day, po once daily for 3 days measured after 1 day; format: ADME, organism-based; parameters: dose 400 mg/day, route oral
[29] = Tmax in healthy human plasma at loading dose of 400 mg/day, po once daily for 3 days measured after 1 day; format: ADME, organism-based
[30] = AUC (0 to last) in healthy human plasma at loading dose of 400 mg/day, po once daily for 3 days measured after 1 day; format: ADME, organism-based; parameters: dose 400 mg/day, time 0 - last, route oral
[31] = Tmax in healthy human plasma at 400 mg administered once on day 1 followed by 200 mg once daily for 2 days during 3 days of treatment measured after 3 days; format: ADME, organism-based
[32] = Cmax in 8 hrs fasted healthy human plasma at 200 mg, po administered as single dose of two-100 mg capsules; format: ADME, organism-based; parameters: dose 200 mg, route oral

`CC[C@H]1OC(=O)[C@H](C)C(=O)[C@H](C)[C@@H](O[C@@H]2O[C@H](C)C[C@H](N(C)C)[C@H]2O)[C@@]2(C)C[C@@H](C)/C(=N\C(C)=O)[C@H](C)[C@@H](OC/C(=N\OCc3ccc(-n4cccn4)nc3)CO2)[C@]1(C)O` [MODITHROMYCIN] gave a Tmax [1] of 3.5 h, an AUC(0-t) [2] of 8270 ng·h/mL and an AUC(0-t) [3] of 8940 ng·h/mL. It also gave an AUC(0-inf) [4] of 8350 ng·h/mL, an AUC(0-inf) [5] of 9030 ng·h/mL and an AUC(0-inf) [6] of 9040 ng·h/mL. For the same molecule, the half-life [7] was 16.9 h, the Ratio [8] was 0.065 and the AUC [9] was 212000 ng·h/mL. The Kp [10] was 245, the concentration at 24 h [11] was 68000 ng/mL and the “Ratio AUC” value [12] was 1.4. The Activity [13] was “Non-toxic”, the Activity [14] was “Non-toxic” and the Activity [15] was “Non-toxic”. For the same molecule, the Activity [16] was “Non-toxic”, the Activity [17] was “Non-toxic” and the Activity [18] was “Non-toxic”. The Activity [19] was “Non-toxic”, the Activity [20] was “Non-toxic” and the Activity [21] was “Non-toxic”. For the same molecule, the Cmax [22] was 432 ng/mL, the Cmax [23] was 559 ng/mL and the Tmax [24] was 3.5 h. It also gave a Tmax [25] of 3.25 h, an AUC(0-inf) [26] of 16400 ng·h/mL and a half-life [27] of 17.4 h. The Cmax [28] was 548 ng/mL, the Tmax [29] was 4 h and the AUC(0-t) at 24 h [30] was 8100 ng·h/mL. The Tmax [31] was 3.5 h and the Cmax [32] was 405 ng/mL.

— ChEMBL document CHEMBL1687734, “Pharmacokinetics of EDP-420 after multiple oral doses in healthy adult volunteers and in a bioequivalence study” (Antimicrob Agents Chemother, 2009)
